Test results as given in US8877769B2, “Heteroaryl-substituted urea modulators of fatty acid amide hydrolase” (Janssen Pharmaceutica NV, priority 2008, dated 2014).

Columns and labels:
spasticity = settings: CREAE mice; cited from earlier work
[1] = system: acute thermal nociception; settings: rats; Hargraves test; cited from earlier work
neuropathic pain = settings: rats; Chung spinal nerve ligation model; cited from earlier work
Rat FAAH = target: T1, Rat FAAH (Rattus norvegicus, UniProt P97612); assay: Assay Method 2: FAAH assay, 3H-anandamide hydrolysis in cell homogenate; assay type: biochemical; settings: average of results obtained, > value = solubility limit or highest concentration tested
T1 construct: expressed in transfected cells
T1 sequence (P97612 1-579): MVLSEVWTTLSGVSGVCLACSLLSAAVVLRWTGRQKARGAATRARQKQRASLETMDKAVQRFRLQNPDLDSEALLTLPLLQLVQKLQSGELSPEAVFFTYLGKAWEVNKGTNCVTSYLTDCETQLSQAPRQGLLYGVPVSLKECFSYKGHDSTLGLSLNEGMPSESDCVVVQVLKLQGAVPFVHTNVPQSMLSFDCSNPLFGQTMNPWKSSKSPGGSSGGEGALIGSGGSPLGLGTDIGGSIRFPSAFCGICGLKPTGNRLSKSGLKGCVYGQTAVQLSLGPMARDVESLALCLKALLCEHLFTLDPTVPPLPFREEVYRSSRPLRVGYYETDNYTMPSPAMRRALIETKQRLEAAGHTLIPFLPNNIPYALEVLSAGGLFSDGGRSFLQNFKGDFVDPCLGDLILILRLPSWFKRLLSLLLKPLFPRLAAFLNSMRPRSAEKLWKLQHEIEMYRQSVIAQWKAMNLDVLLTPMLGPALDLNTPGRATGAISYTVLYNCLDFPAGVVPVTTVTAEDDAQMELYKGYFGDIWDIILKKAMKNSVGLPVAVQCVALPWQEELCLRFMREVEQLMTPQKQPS

FAAH [2] = target: T2, FAAH (Homo sapiens, UniProt O00519); assay: Assay Method 1: FAAH assay, 3H-anandamide hydrolysis in cell homogenate
T2 sequence (O00519 1-579): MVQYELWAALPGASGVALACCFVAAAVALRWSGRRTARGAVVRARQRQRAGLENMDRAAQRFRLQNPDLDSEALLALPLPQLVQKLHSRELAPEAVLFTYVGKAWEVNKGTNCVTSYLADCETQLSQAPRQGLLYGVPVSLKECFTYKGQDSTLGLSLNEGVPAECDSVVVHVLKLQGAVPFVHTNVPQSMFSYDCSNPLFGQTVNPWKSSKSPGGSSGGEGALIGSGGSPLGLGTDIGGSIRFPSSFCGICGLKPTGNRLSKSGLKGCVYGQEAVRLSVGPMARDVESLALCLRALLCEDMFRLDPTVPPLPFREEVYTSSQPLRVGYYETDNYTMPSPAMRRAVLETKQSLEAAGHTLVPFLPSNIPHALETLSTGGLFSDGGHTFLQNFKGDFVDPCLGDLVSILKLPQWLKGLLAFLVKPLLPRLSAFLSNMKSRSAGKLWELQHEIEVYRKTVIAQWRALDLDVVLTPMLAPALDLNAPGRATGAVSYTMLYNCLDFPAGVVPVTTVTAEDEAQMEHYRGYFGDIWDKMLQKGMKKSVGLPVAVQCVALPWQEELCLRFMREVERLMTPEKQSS
Experimental: The assay mixture consisted of 50 μL of the cell homogenate, 10 μL of the test compound, and 40 μL of anandamide [1-^3H-ethanolamine] (^3H-AEA, Perkin-Elmer, 10.3 Ci/mmol), which was added last, for a final tracer concentration of 80 nM. The reaction mixture was incubated at rt for 1 h. During the incubation, 96-well Multiscreen filter plates (catalog number MAFCNOB50; Millipore, Bedford, Mass., USA) were loaded with 25 μL of activated charcoal (Multiscreen column loader, catalog number MACL09625, Millipore) and washed once with 100 μL of MeOH. […] After the 1 h incubation, 60 μL of the reaction mixture were transferred to the charcoal plates, which were then assembled on top of the DYNEX plates using Centrifuge Alignment Frames (catalog number MACF09604, Millipore). The unbound labeled ethanolamine was centrifuged through to the bottom plate (5 min at 2000 rpm), which was preloaded with the scintillant, as described above. The plates were sealed and left at rt for 1 h before counting on a Hewlett Packard TopCount. • Assay Method 2

FAAH [3] = target: T2, FAAH; settings: cited from earlier work
thermal nociception [4] = settings: rat hot plate test; cited from earlier work
thermal nociception [5] = settings: rats; tail emersion test; cited from earlier work
[6] = rat formalin test; cited from earlier work
anxiety = settings: rats; zero plus maze; cited from earlier work

| SMILES | IC50 (Rat FAAH) | IC50 (FAAH [2]) | further results |
| --- | --- | --- | --- |
| CCCCCCCCCCCCCCCCS(=O)(=O)F [AM374] |  |  | reduction of spasticity (spasticity): significantly reduce spasticity |
| Cc1nc(-c2ccccc2)c(-c2ccccc2)n1CCCCCCNC(=O)Oc1ccccc1F [BMS-1] |  |  | analgesic effect [1]: analgesic effect; analgesic effect (neuropathic pain): analgesic effect |
| N#Cc1ccc(Oc2cccc(CN3CCN(C(=O)Nc4cnc5[nH]ccc5c4)CC3)c2)nc1 [Example 79, 4-[3-(5-Cyano-pyridin-2-yloxy)-benzyl]-piperazine-1-carboxylic acid (1H-pyrrolo[2,3-b]pyridin-5-yl)-amide] | 270 nM | 22 nM |  |
| O=C(Nc1cnc2[nH]ccc2c1)N1CCN(Cc2cccc(Oc3ccc(C(F)(F)F)nn3)c2)CC1 [Example 80, 4-[3-(6-Trifluoromethyl-pyridazin-3-yloxy)-benzyl]-piperazine-1-carboxylic acid (1H-pyrrolo[2,3-b]pyridin-5-yl)-amide] | 180 nM | 3 nM |  |
| O=C(Nc1cnc2[nH]ccc2c1)N1CCC(Cc2ccc(Cl)c(Cl)c2)CC1 [Example 81, 4-(3,4-Dichloro-benzyl)-piperidine-1-carboxylic acid (1H-pyrrolo[2,3-b]pyridin-5-yl)-amide] | 3 nM | 3 nM |  |
| O=C(Nc1cnc2ccccn12)N1CCC(Cc2ccc(Cl)c(Cl)c2)CC1 [Example 82, 4-(3,4-Dichlorobenzyl)-N-imidazo[1,2-a]pyridin-3-ylpiperidine-1-carboxamide] | 800 nM | 900 nM |  |
| O=C(Nc1cnc2cccnn12)N1CCC(Cc2ccc(Cl)c(Cl)c2)CC1 [Example 83, 4-(3,4-Dichlorobenzyl)-N-imidazo[1,2-b]pyridazin-3-ylpiperidine-1-carboxamide] | 30 nM | 15 nM |  |
| O=C(Nc1nocc1Cl)N1CCC(Cc2cnc3ccccc3c2)CC1 [Example 84, 4-Quinolin-3-ylmethyl-piperidine-1-carboxylic acid (4-chloro-isoxazol-3-yl)-amide] | 35 nM | 14 nM |  |
| O=C(Nc1nocc1Cl)N1CCN(Cc2ccc3c(c2)OC(F)(F)O3)CC1 [Example 86, 4-(2,2-Difluoro-benzo[1,3]dioxol-5-ylmethyl)-piperazine-1-carboxylic acid (4-chloro-isoxazol-3-yl)-amide] | 280 nM | 73 nM |  |
| O=C(CCCCCCc1ccccc1)c1ncc(-c2ccccn2)o1 [OL-135] |  |  | inhibition of FAAH (FAAH [3]): potent inhibitor; analgesic efficacy / activity (thermal nociception [4]): analgesic activity; analgesic activity (thermal nociception [5]): analgesic activity |
| NC(=O)c1cccc(-c2cccc(OC(=O)NC3CCCCC3)c2)c1 [URB-597] |  |  | analgesic efficacy / activity (thermal nociception [4]): analgesic efficacy; analgesic efficacy [6]: analgesic efficacy; efficacy in anxiety model (anxiety): efficacy |
